What all share (type): cell-based
Assay [1] has as its target Sphingosine 1-phosphate receptor 1 (Homo sapiens) (UniProt P21453). As to the kind of experiment: In vitro binding affinity towards Endothelial differentiation G-protein coupled receptor 1 in CHO cells using [3H]S1P as radioligand relative to SIP.
Assay [2] addresses Sphingosine 1-phosphate receptor 3 (Homo sapiens) (UniProt Q99500). As to the kind of experiment: In vitro binding affinity towards Endothelial differentiation G-protein coupled receptor 3 in CHO cells using [3H]S1P as radioligand relative to SIP.
For assay [3], the target named is Sphingosine 1-phosphate receptor 2 (Homo sapiens) (UniProt O95136). As to the kind of experiment: In vitro binding affinity towards Endothelial differentiation G-protein coupled receptor 5 in CHO cells using [3H]S1P as radioligand relative to SIP.
Assay [4] concerns the target Sphingosine 1-phosphate receptor 1 (Homo sapiens) (UniProt P21453). As to the kind of experiment: In vitro binding affinity towards Endothelial differentiation G-protein coupled receptor 1 in CHO cells using [3H]S1P as radioligand relative to SIP; Not active.
Assay [5] addresses Sphingosine 1-phosphate receptor 3 (Homo sapiens) (UniProt Q99500). As to the kind of experiment: In vitro binding affinity towards Endothelial differentiation G-protein coupled receptor 3 in CHO cells using [3H]S1P as radioligand relative to SIP; Not active.
In assay [6] the target is Sphingosine 1-phosphate receptor 2 (Homo sapiens) (UniProt O95136). As to the kind of experiment: In vitro binding affinity towards Endothelial differentiation G-protein coupled receptor 5 in CHO cells using [3H]S1P as radioligand relative to SIP; Not active.

Activity calls are given as the source filed them. The calls are words filed in the database; no cut-off is given here.

Sphingosine 1-phosphate receptor 2 (Homo sapiens), sequence (O95136 whole entry): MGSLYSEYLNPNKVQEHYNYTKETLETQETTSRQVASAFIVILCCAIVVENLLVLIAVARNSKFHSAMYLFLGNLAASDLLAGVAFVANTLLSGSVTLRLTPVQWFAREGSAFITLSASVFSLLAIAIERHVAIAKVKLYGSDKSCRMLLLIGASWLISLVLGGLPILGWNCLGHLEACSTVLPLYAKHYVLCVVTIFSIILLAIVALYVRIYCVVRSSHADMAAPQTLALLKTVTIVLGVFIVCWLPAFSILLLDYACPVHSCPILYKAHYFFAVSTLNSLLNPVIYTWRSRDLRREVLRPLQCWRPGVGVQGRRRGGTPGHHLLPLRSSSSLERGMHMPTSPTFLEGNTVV
Sphingosine 1-phosphate receptor 1 (Homo sapiens), sequence (P21453 whole entry): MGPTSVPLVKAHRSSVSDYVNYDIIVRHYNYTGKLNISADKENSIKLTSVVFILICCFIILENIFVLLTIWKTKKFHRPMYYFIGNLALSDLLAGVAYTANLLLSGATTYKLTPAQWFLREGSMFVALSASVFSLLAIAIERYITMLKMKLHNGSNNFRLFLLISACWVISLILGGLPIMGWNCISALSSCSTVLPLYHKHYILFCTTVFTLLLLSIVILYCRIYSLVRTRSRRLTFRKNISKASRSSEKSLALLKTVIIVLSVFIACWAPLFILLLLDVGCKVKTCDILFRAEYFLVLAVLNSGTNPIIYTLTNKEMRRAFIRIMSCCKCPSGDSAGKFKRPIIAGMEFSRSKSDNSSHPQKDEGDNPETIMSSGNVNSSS
Sphingosine 1-phosphate receptor 3 (Homo sapiens), sequence (Q99500 whole entry): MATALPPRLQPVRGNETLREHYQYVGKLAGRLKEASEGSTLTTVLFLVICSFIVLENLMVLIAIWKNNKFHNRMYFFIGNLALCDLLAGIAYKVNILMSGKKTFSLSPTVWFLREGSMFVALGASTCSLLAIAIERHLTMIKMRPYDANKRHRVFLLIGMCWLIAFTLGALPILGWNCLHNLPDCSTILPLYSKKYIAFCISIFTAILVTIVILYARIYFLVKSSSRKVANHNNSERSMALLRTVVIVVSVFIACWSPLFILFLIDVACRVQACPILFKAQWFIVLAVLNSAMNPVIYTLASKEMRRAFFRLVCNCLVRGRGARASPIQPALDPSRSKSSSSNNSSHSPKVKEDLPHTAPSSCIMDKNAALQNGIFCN

Turning to `CCCCCCCCCCCCC/C=C/[C@H](O)[C@H](N)COP(=O)(O)O`, the figures for the Relative binding affinity in assay [1], in assay [2] and in assay [3] were 7.4%, 20% and 41%, respectively.

`CCCCCCCCCCCCC/C=C/[C@H](O)[C@@H](N)COP(=O)(O)O`: the Relative binding affinity in assay [1] worked out at 27%; in assay [2] it was 46%; in assay [3], 23%.

As to `CCCCCCCCCCCCCCC[C@@H](O)[C@@H](N)COP(=O)(O)O`, the Relative binding affinity in assay [1] worked out at 41%; in assay [2], 86%; in assay [3] it was 54%.

As to `CCCCCCCCCCCCCCCC[C@@H](N)COP(=O)(O)O`, the Relative binding affinity in assay [2] is 29%.

As for `CCCCCCCCCCCCCCC[C@H](O)[C@H](N)COP(=O)(O)O`, the Relative binding affinity result in assay [4], in assay [5] and in assay [6] was “inactive” in each case.

As for `CCCCCCCCCCCCCCC[C@H](O)[C@@H](N)COP(=O)(O)O`, the Relative binding affinity in assay [1] amounted to 12%; in assay [2], 51%; in assay [3], 30%.

`CCCCCCCCCCCCC/C=C/[C@@H](O)[C@@H](N)COP(=O)(OC)OC`: the Relative binding affinity result in assay [4], in assay [5] and in assay [6] was “inactive” each time.

Values taken from ChEMBL document CHEMBL1136264, “Syntheses of sphingosine-1-phosphate stereoisomers and analogues and their interaction with EDG receptors” (Bioorg Med Chem Lett, 2003).
